From PubChem BioAssay (NCI)
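Method: 48-hour compound exposure of cells in 96-well plates, five concentrations, linear interpolation of endpoints. Definition used: TGI = concentration required for complete inhibition of growth.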

Assays:
Test in all cases: NCI-60 cell line screen, 48 h
A498 renal = test system: A498 renal
CCRF-CEM leukemia = test system: CCRF-CEM leukemia
EKVX NSCLC = test system: EKVX NSCLC
HCT-116 colon = test system: HCT-116 colon
MDA-MB-231 breast = test system: MDA-MB-231 breast
MDA-MB-435 = test system: MDA-MB-435
OVCAR-4 ovarian = test system: OVCAR-4 ovarian
SN12C renal = test system: SN12C renal
T-47D breast = test system: T-47D breast
UACC-62 melanoma = test system: UACC-62 melanoma

Row | SMILES | TGI (A498 renal) | TGI (CCRF-CEM leukemia) | TGI (EKVX NSCLC) | TGI (HCT-116 colon) | TGI (MDA-MB-231 breast) | TGI (MDA-MB-435) | TGI (OVCAR-4 ovarian) | TGI (SN12C renal) | TGI (T-47D breast) | TGI (UACC-62 melanoma)
1 | Cc1ccc(C(=O)Nc2ccc(S(=O)(=O)O)c3cc(S(=O)(=O)O)cc(S(=O)(=O)O)c23)cc1NC(=O)c1cccc(NC(=O)Nc2cccc(C(=O)Nc3cc(C(=O)Nc4ccc(S(=O)(=O)O)c5cc(S(=O)(=O)O)cc(S(=O)(=O)O)c45)ccc3C)c2)c1 (tested in a mixture with another compound) | > 50 µM | > 50 µM | > 50 µM | > 50 µM | > 50 µM | > 50 µM | > 50 µM | > 50 µM | > 50 µM | > 50 µM
2 | CC(C)(C)[C@H]1CCC2(OCCO2)[C@](O)(CCCO)C1 | > 100 µM | > 100 µM | > 100 µM | > 100 µM | > 100 µM | > 100 µM | > 100 µM | > 100 µM | > 100 µM | > 100 µM
3 | C=C(C(=O)OC)c1cc2ccccc2n1S(=O)(=O)c1ccccc1 | 5.69 µM | 4.18 µM | 37.7 µM | > 34.4 µM | 6.16 µM | 7.28 µM | 11.3 µM | 8.18 µM | 5.51 µM | 15 µM
4 | CCN1CCC(O)(c2ccc(Oc3ccc(C)cc3)cc2)C(C(=O)c2ccc(Oc3ccc(C)cc3)cc2)C1 (stereo not given) | 6.39 µM | 21.8 µM | 29 µM | 19 µM | 20.4 µM | 24.9 µM | 17.3 µM | 30.7 µM | 33.7 µM | 24.5 µM
5 | CC(=O)N1c2ccccc2C(C)C1c1[nH]c2ccccc2c1C (stereo not given) | 53.8 µM | > 100 µM | > 100 µM | 41.6 µM | 53.5 µM | 50.4 µM | > 100 µM | 33.9 µM | 91.5 µM | 48.9 µM
6 | CC(=O)OCC1=C(C)C[C@H]([C@@H](COC(C)=O)C2CCC3C4C[C@H]5O[C@]56CC=CC(=O)[C@]6(C)C4CC[C@@]32C)OC1=O (stereo not given in full) | 1.64 µM | 0.353 µM | 1.36 µM | 0.3 µM | 1.91 µM | 0.721 µM | 9.9 µM | 1.18 µM | 1.41 µM | 0.976 µM
7 | c1ccc(-c2cc(-c3cccs3)c(-c3cccs3)o2)cc1 | > 100 µM | > 100 µM | > 100 µM | > 100 µM | > 100 µM | > 100 µM | > 100 µM | > 100 µM | > 100 µM | > 100 µM
8 | C=CCN(c1cc(OC)c2[nH]cc(C)c2c1[N+](=O)[O-])S(C)(=O)=O | > 100 µM | > 100 µM | > 100 µM | > 100 µM | > 100 µM | > 100 µM | > 100 µM | > 100 µM | > 100 µM | > 100 µM
9 | c1ccc2nc(CCC3CCCCN3)ccc2c1 (stereo not given) | > 100 µM | > 100 µM | > 100 µM | > 100 µM | > 100 µM | > 100 µM | > 100 µM | > 100 µM | > 100 µM | > 100 µM
10 | COC(=O)c1ccccc1C1CN=NC12Cc1cccc(C)c1C2=O (stereo not given) | > 100 µM | > 100 µM | > 100 µM | > 100 µM | > 100 µM | > 100 µM | > 100 µM | > 100 µM | 56.4 µM | > 100 µM
11 | Nn1c(Cc2ccccc2)n[nH]c1=O | > 100 µM | > 100 µM | > 100 µM | > 100 µM | > 100 µM | > 100 µM | > 100 µM | > 100 µM | > 100 µM | > 100 µM
12 | Cc1cc2nc(N3C(=O)/C(=C/c4ccc(Cl)cc4)N=C3c3ccccc3)sc2cc1C | 85.9 µM | 38.7 µM | 91.2 µM | 53.9 µM | > 100 µM | 30.7 µM | 91.8 µM | 87.6 µM | > 100 µM | > 100 µM
13 | Clc1nc(Cl)c(CBr)c(Cl)n1 | 32.1 µM | 3.41 µM | 48.9 µM | 5.55 µM | 4.04 µM | 17 µM | 19.7 µM | 6.79 µM | 36.1 µM | 11.4 µM
14 | S=C(Nc1ccccn1)Nc1ccccc1Cl | > 100 µM | > 100 µM | > 55.9 µM | > 100 µM | > 100 µM | > 100 µM | > 100 µM | > 100 µM | > 100 µM | > 100 µM
15 | NC1CC(=O)c2sccc21 (stereo not given) | > 100 µM | > 100 µM | > 100 µM | > 100 µM | > 100 µM | > 100 µM | > 100 µM | > 100 µM | > 100 µM | > 100 µM
16 | CC(=O)Oc1ccc(/C=C/C(=O)O[C@H]2CCCC[C@@H]2OC(=O)/C=C/c2ccc(OC(C)=O)c(OC(C)=O)c2)cc1OC(C)=O | 38.2 µM | 16.9 µM | 44 µM | 20.3 µM | > 100 µM | 32.7 µM | > 100 µM | 29.8 µM | 47.1 µM | 17.7 µM

Row | SMILES | TGI (A498 renal) | TGI (CCRF-CEM leukemia) | TGI (EKVX NSCLC) | TGI (HCT-116 colon) | TGI (MDA-MB-231 breast) | TGI (MDA-MB-435) | TGI (OVCAR-4 ovarian) | TGI (SN12C renal) | TGI (T-47D breast) | TGI (UACC-62 melanoma)
17 | COc1ccc2cc(C(=O)NCCCNC(=O)c3ccc4cc(OC)ccc4c3)ccc2c1 | > 100 µM | > 100 µM | > 100 µM | > 100 µM | > 74.4 µM | > 100 µM | > 100 µM | > 100 µM | > 100 µM | > 100 µM
18 | O=C1c2ccccc2-c2nc(/C=C/c3ccccc3)cc3c2c1nc1ccccc13 | > 100 µM | > 100 µM | > 100 µM | > 100 µM | 74 µM | 26.9 µM | > 100 µM | > 100 µM | > 100 µM | 25.7 µM
19 | CCOC(=O)Cn1c(=O)c2cc(-c3ccccc3)cc3c(Cl)nc4c(OC)c(OC)cc1c4c32 | 59.6 µM | > 56.9 µM | > 59.2 µM | 29.1 µM | > 100 µM | 38.3 µM | > 77.1 µM | > 100 µM | > 100 µM | 30.4 µM
20 | CC(=O)O[C@H]1C[C@H]2C(=S)Nc3ccccc3C(=S)N2C1 | > 100 µM | > 100 µM | > 100 µM | > 100 µM | > 100 µM | > 100 µM | > 100 µM | > 100 µM | > 100 µM | > 100 µM
21 | Oc1cccc(-c2cn3cc(C(F)(F)F)ccc3n2)c1 | > 100 µM | 77.5 µM | 70.9 µM | > 100 µM | > 100 µM | > 100 µM | > 100 µM | > 100 µM | 21.2 µM | > 100 µM
22 | O=[N+]([O-])c1c2nc3n(c2cc2c1nc1n2CCC1)CCC3 | > 100 µM | > 100 µM | > 100 µM | > 100 µM | > 100 µM | > 100 µM | > 100 µM | > 100 µM | > 100 µM | > 100 µM
23 | CC12CCC(C(Nc3ccccn3)C1=O)C2(C)C (stereo not given) | > 100 µM | > 100 µM | > 100 µM | > 100 µM | > 100 µM | > 100 µM | > 100 µM | > 100 µM | > 100 µM | > 100 µM
24 | CC1(C)CCC(=O)NC1CC(=O)CC1NC(=O)CCC1(C)C (stereo not given) | > 100 µM | > 100 µM | > 100 µM | > 100 µM | > 100 µM | > 100 µM | > 100 µM | > 100 µM | > 100 µM | > 100 µM
25 | CCCCCCCCCCCCCCCCCCOCC(COP(=O)([O-])OCC[N+](C)(C)C)OC (stereo not given) | 45.8 µM | 28 µM | 70.3 µM | 43.5 µM | > 100 µM | > 100 µM | > 52.6 µM | 34.6 µM | > 100 µM | 47.1 µM
26 | N#Cc1ccc(Oc2nc3ccc(C(F)(F)F)cc3nc2-c2ccccc2)cc1 | 31.2 µM | 44.7 µM | 32.5 µM | 28.6 µM | 36.8 µM | 33.8 µM | 32.4 µM | 40.9 µM | 38.5 µM | > 100 µM
27 | Cc1ccc(S(=O)(=O)N2CCNCCN(S(=O)(=O)c3ccc(C)cc3)CCN(S(=O)(=O)c3ccc(C)cc3)CC2)cc1 | > 100 µM | > 100 µM | > 100 µM | > 100 µM | > 100 µM | > 100 µM | > 100 µM | > 100 µM | > 100 µM | > 100 µM
28 | Cc1nnc(-n2c(O)cc(=O)n(-c3ccccc3)c2=S)nc1/C=C/c1ccc(N(C)C)cc1 | > 55 µM | > 100 µM | > 100 µM | > 55.7 µM | > 55.7 µM | 23.8 µM | > 58.1 µM | > 96.1 µM | > 60.7 µM | > 46.8 µM
29 | NC(=O)CC(N=C1C(=O)OC(C(O)CO)C1=NC(CC(N)=O)C(=O)O)C(=O)O (stereo not given) | > 100 µM | > 100 µM | > 100 µM | > 100 µM | > 100 µM | > 100 µM | > 100 µM | > 100 µM | > 100 µM | > 100 µM
30 | Nc1ccc(Oc2ccc(C34CC5CC6C3CC3CC4C(C5)C6(c4ccc(Oc5ccc(N)c(O)c5)cc4)C3)cc2)cc1O | 20.4 µM | 40.3 µM | 22.2 µM | 11.1 µM | 14.9 µM | 29.3 µM | 22.2 µM | 11.4 µM | > 63.7 µM | 26.3 µM
31 | Cn1c(=O)c2c(nc(Nc3ccc(Cl)cc3)n3c(=O)n(-c4ccccc4)c(=O)n23)n(C)c1=O | > 100 µM | > 100 µM | > 100 µM | > 100 µM | > 100 µM | > 100 µM | > 100 µM | > 100 µM | > 100 µM | > 100 µM
32 | N=c1c2c(=S)n(-c3ccccc3)c(=S)n(-c3ccccc3)c2nc(SCCN2CCOCC2)n1-c1ccccc1 | 8.96 µM | 3.19 µM | 9.58 µM | 3.45 µM | 4.73 µM | 3.4 µM | 3.4 µM | 3.71 µM | 8.03 µM | 3.29 µM
